Measurements taken from patent US7897602B2, “Indolinone compounds as kinase inhibitors” (Development Center for Biotechnology, priority 2009, dated 2011).
pIC50: −log10 of the molar value.

How the values were obtained:
Format in all cases: biochemical
[1] = target: T1, Aurora A kinase (Homo sapiens, UniProt O14965); assay: Aurora A kinase assay ([γ-33P]ATP, CHOCKtide substrate); conditions: for inhibition at 1 µM: 1.0 μM test compound
T1 construct: purchased Upstate
T1 sequence (O14965 1-403): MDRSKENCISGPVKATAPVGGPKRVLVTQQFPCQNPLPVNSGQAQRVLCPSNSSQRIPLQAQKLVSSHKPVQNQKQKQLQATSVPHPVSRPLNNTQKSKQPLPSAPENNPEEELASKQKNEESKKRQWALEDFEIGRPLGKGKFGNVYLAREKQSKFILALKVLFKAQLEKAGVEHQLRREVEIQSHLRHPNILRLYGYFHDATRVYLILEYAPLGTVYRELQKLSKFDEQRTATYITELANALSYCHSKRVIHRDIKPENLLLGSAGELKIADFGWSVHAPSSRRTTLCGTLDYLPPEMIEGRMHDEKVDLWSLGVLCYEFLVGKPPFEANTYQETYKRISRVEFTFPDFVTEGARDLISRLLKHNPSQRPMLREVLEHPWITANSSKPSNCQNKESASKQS
Method: (§1) Inhibition of Aurora Kinase by the compounds disclosed herein was determined by incubating Aurora kinase, substrate, and a test compound together for a period of time followed by quantifying the resultant phosphorylated product. Specifically, in a well of a 96-well round bottom plate, 25 μL of a reaction mixture containing (1) a test compound disclosed herein (diluted from 9 μM to the desired final concentration), [γ-33P]ATP/ATP mix (10 μM), CHOCKtide (1 μg, Genesis Biotech Inc.), and Aurora-A (1 ng, purchased from Upstate); or (2) a test compound disclosed herein (diluted from 9 μM to the desired final concentration), [γ-33P]ATP/ATP mix (40 μM), CHOCKtide (1 μg, Genesis Biotech Inc.), and Aurora-B (2.5 ng, purchased from Cell signaling); was prepared and incubated at 33° C. for 30 minutes. The reaction was then stopped by adding 5 μL of 3% phosphoric acid. The resultant solution (30 μL) was later harvested by a UniFilter Plate GF/B (PerkinElmer) followed by adding 30 μL of the scintillation cocktail (MicroScint 20, PerkinElmer) to the well. The radioactivity retained on the filter membrane was measured by a luminescence counter (PerkinElmer). IC50 value is defined as the concentration of the test compound which achieves a half-maximal inhibition of the kinase activity.

[2] = target: T2, Aurora B kinase (Homo sapiens, UniProt Q96GD4); assay: Aurora B kinase assay ([γ-33P]ATP, CHOCKtide substrate); conditions: 1.0 μM test compound
T2 construct: purchased Cell signaling
Method: as §1

[3] = target: T3, c-Met kinase (Homo sapiens, UniProt P08581); assay: c-Met kinase assay (33P incorporation into Poly(Glu-Tyr)); conditions: 500 nM test compound
T3 construct: recombinant N-terminal 6×His-tagged c-Met kinase domain construct expressed from baculovirus; 6xHis (N); made in house
Method: Inhibition of c-Met kinase activity by compounds disclosed herein was quantified by measuring the amount of [^33P] incorporated into the substrate in the presence of a test compound. Briefly, a reaction mixture of 25 μL final volume containing 5 ng of c-Met kinase (obtained by purifying recombinant N-terminal 6×His-tagged c-Met kinase domain construct expressed from baculovirus), 1 μg of the substrate (Poly (Glu-Tyr, 4:1, Sigma)), kinase reaction buffer (20 mM MOPS pH 7.0, 1 mM EDTA, 5% glycerol, 0.01% Brij-35, 0.1% β-mercaptoethanol, 1 mg/mL BSA, 100 μM ATP, 0.1 μCi per well [^33P]-γ-ATP (2,500-3,000 Ci/mmol)), and a test compound (500 nM, diluted with 4% DMSO) or DMSO (as the control) was incubated at 30° C. for 30 minutes. The reaction was stopped by adding 5 μL of 3% phosphoric acid solution. The resultant reaction solution was then harvested onto a filter plate (UniFilter-96 GF/B, PerkinElmer), washed 20 times for 5 min with d.d. H2O, and followed by the addition of 30 μL of MicroScint™-20 Cocktail (PerkinElmer). The plate was then sealed and counted using a TopCount scintillation detector (PerkinElmer). The percentage of inhibition rate of the test compound was calculated by dividing the retained radioactivity of the test sample with the retained radioactivity of the control sample and shown in Table 3.

T2 sequence (Q96GD4 whole entry): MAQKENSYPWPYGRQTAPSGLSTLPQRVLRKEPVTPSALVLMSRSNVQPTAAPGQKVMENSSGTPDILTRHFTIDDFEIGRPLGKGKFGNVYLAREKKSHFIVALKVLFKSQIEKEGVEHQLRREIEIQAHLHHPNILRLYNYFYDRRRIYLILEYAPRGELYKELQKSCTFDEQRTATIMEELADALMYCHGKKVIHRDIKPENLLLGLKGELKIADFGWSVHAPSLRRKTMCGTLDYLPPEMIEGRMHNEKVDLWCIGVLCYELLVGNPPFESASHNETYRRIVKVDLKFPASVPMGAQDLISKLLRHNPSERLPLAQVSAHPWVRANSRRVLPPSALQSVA
T3 sequence (P08581 1078-1345 limits assumed): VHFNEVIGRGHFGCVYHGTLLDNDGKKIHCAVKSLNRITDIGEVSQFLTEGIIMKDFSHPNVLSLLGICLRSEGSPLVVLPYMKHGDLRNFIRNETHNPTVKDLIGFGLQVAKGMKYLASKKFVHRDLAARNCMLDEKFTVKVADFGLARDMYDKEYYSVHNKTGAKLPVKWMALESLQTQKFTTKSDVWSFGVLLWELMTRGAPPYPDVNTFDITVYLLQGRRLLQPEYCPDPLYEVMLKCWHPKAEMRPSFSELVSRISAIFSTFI

Structure (SMILES)	inhibition at 1 µM [1] [%]	inhibition at 1 µM [2] [%]	inhibition at 0.5 µM [3] [%]	pIC50 [1]
CCOC(=O)CCc1c(/C=C2\C(=O)Nc3ccc(OC)cc32)[nH]c2c1C(=O)CCCC2 [DCB-70154, (Z)-ethyl 3-(2-((5-methoxy-2-oxoindolin-3-ylidene)methyl)-4-oxo-1,4,5,6,7,8-hexahydrocyclohepta[b]pyrrol-3-yl)propanoate]	-0.3	2.8	47.9	–
COc1ccc2c(c1)/C(=C/c1[nH]c3c(c1CCC(=O)O)C(=O)CCCC3)C(=O)N2 [DCB-70155, (Z)-3-(2-((5-methoxy-2-oxoindolin-3-ylidene)methyl)-4-oxo-1,4,5,6,7,8-hexahydrocyclohepta[b]pyrrol-3-yl)propanoic acid]	75.6	10.7	9.1	–
CNC(=O)CCc1c(/C=C2\C(=O)Nc3ccc(S(=O)(=O)Cc4c(Cl)cccc4Cl)cc32)[nH]c2c1C(=O)CCC2 [DCB-70157, (Z)-3-(2-((5-(2,6-dichlorobenzylsulfonyl)-2-oxoindolin-3-ylidene)methyl)-4-oxo-4,5,6,7-tetrahydro-1H-indol-3-yl)-N-methylpropanamide]	13	6.9	85.6	–
CC1(C)CC(=O)c2c([nH]c(/C=C3\C(=O)Nc4ccc(S(=O)(=O)Cc5c(Cl)cccc5Cl)cc43)c2CCC(=O)O)C1 [DCB-70159, (Z)-3-(2-((5-(2,6-dichlorobenzylsulfonyl)-2-oxoindolin-3-ylidene)methyl)-6,6-dimethyl-4-oxo-4,5,6,7-tetrahydro-1H-indol-3-yl)propanoic acid]	13.9	-5.5	81.3	–
CCOC(=O)CCc1c(/C=C2\C(=O)Nc3ccc(OC)cc32)[nH]c2c1C(=O)CCC2 [DCB-70166, (Z)-ethyl 3-(2-((5-methoxy-2-oxoindolin-3-ylidene)methyl)-4-oxo-4,5,6,7-tetrahydro-1H-indol-3-yl)propanoate]	48.8	13	21.6	–
CCOC(=O)CCc1c(/C=C2\C(=O)Nc3ccc(NS(=O)(=O)c4ccccc4)cc32)[nH]c2c1C(=O)CC(C)(C)C2 [DCB-70168, (Z)-ethyl 3-(6,6-dimethyl-4-oxo-2-((2-oxo-5-(phenylsulfonamido)indolin-3-ylidene)methyl)-4,5,6,7-tetrahydro-1H-indol-3-yl)propanoate]	53.4	30.6	12.7	–
CCCCCCC#Cc1ccc2c(c1)NC(=O)/C2=C\c1[nH]c2c(c1CCC(=O)OCC)C(=O)CCC2 [DCB-70170, (Z)-ethyl 3-(2-((6-(oct-1-ynyl)-2-oxoindolin-3-ylidene)methyl)-4-oxo-4,5,6,7-tetrahydro-1H-indol-3-yl)propanoate]	10.5	2.8	13.1	–
CCCCCCC#Cc1ccc2c(c1)NC(=O)/C2=C\c1[nH]c2c(c1CCC(=O)O)C(=O)CCC2 [DCB-70171, (Z)-3-(2-((6-(oct-1-ynyl)-2-oxoindolin-3-ylidene)methyl)-4-oxo-4,5,6,7-tetrahydro-1H-indol-3-yl)propanoic acid]	73	17.4	18.2	–
CCCCCCC#Cc1ccc2c(c1)/C(=C/c1[nH]c3c(c1CCC(=O)OCC)C(=O)CCC3)C(=O)N2 [DCB-70172, (Z)-ethyl 3-(2-((5-(oct-1-ynyl)-2-oxoindolin-3-ylidene)methyl)-4-oxo-4,5,6,7-tetrahydro-1H-indol-3-yl)propanoate]	-3.1	-3.2	10.4	–
CCOC(=O)CCc1c(/C=C2\C(=O)Nc3ccc(NCc4ccc(OC)cc4)cc32)[nH]c2c1C(=O)CCC2 [DCB-70175, (Z)-ethyl 3-(2-((5-(4-methoxybenzylamino)-2-oxoindolin-3-ylidene)methyl)-4-oxo-4,5,6,7-tetrahydro-1H-indol-3-yl)propanoate]	30.7	8.4	17.3	–
CCN(CC)CCNC(=O)CCc1c(/C=C2\C(=O)Nc3ccc(S(=O)(=O)Cc4c(Cl)cccc4Cl)cc32)[nH]c2c1C(=O)CCC2 [DCB-70223, (Z)-3-(2-((5-(2,6-dichlorobenzylsulfonyl)-2-oxoindolin-3-ylidene)methyl)-4-oxo-4,5,6,7-tetrahydro-1H-indol-3-yl)-N-(2-(diethylamino)ethyl)propanamide]	68.5	43.7	–	–

Further lines, results first:

inhibition at 1 µM [1] [%]	inhibition at 1 µM [2] [%]	inhibition at 0.5 µM [3] [%]	pIC50 [1]	Structure (SMILES)
5.2	6.1	85.4	–	CCOC(=O)CCc1c(/C=C2\C(=O)Nc3ccc(S(=O)(=O)Cc4c(Cl)cccc4Cl)cc32)[nH]c2c1C(=O)CC(C)(C)C2 [DCB-70158, (Z)-ethyl 3-(2-((5-(2,6-dichlorobenzylsulfonyl)-2-oxoindolin-3-ylidene)methyl)-6,6-dimethyl-4-oxo-4,5,6,7-tetrahydro-1H-indol-3-yl)propanoate]
5	6.1	59.1	–	CCOC(=O)CCc1c(/C=C2\C(=O)Nc3ccc(S(=O)(=O)N4CCc5ccccc54)cc32)[nH]c2c1C(=O)CC(C)(C)C2 [DCB-70160, (Z)-ethyl 3-(2-((5-(indolin-1-ylsulfonyl)-2-oxoindolin-3-ylidene)methyl)-6,6-dimethyl-4-oxo-4,5,6,7-tetrahydro-1H-indol-3-yl)propanoate]
78.8	14.6	59.7	–	CC1(C)CC(=O)c2c([nH]c(/C=C3\C(=O)Nc4ccc(S(=O)(=O)N5CCc6ccccc65)cc43)c2CCC(=O)O)C1 [DCB-70161, (Z)-3-(2-((5-(indolin-1-ylsulfonyl)-2-oxoindolin-3-ylidene)methyl)-6,6-dimethyl-4-oxo-4,5,6,7-tetrahydro-1H-indol-3-yl)propanoic acid]
86.4	19.8	11.8	6.87	COc1ccc2c(c1)/C(=C/c1[nH]c3c(c1CCC(=O)O)C(=O)CCC3)C(=O)N2 [DCB-70167, (Z)-3-(2-((5-methoxy-2-oxoindolin-3-ylidene)methyl)-4-oxo-4,5,6,7-tetrahydro-1H-indol-3-yl)propanoic acid]
79.6	31	10.8	–	CC1(C)CC(=O)c2c([nH]c(/C=C3\C(=O)Nc4ccc(NS(=O)(=O)c5ccccc5)cc43)c2CCC(=O)O)C1 [DCB-70169, (Z)-3-(6,6-dimethyl-4-oxo-2-((2-oxo-5-(phenylsulfonamido)indolin-3-ylidene)methyl)-4,5,6,7-tetrahydro-1H-indol-3-yl)propanoic acid]
13.6	-9.8	13.7	–	CCCCCCC#Cc1ccc2c(c1)/C(=C/c1[nH]c3c(c1CCC(=O)O)C(=O)CCC3)C(=O)N2 [DCB-70173, (Z)-3-(2-((5-(oct-1-ynyl)-2-oxoindolin-3-ylidene)methyl)-4-oxo-4,5,6,7-tetrahydro-1H-indol-3-yl)propanoic acid]
2.4	-11.4	4	–	CCOC(=O)CCc1c(/C=C2\C(=O)Nc3ccc(NC(=O)NC45CC6CC(CC(C6)C4)C5)cc32)[nH]c2c1C(=O)CCC2 [DCB-70174, Ethyl 3-(2-((Z)-(5-(3-(1-adamantanyl)ureido)-2-oxoindolin-3-ylidene)methyl)-4-oxo-4,5,6,7-tetrahydro-1H-indol-3-yl)propanoate]
